Two compounds from EP0913399A1, “Silver -2-mercapto sodium benzoate pharmaceutical compound and process for obtaining the same” (Korban Medical S.a.s. di Longhetti Gianna & C., priority 1997, dated 1999) can be followed below.

The subject of data set [1] is tested organism. The data set can be described thus: MIC comparison of equivalent ionic doses of Ag^+ from thiometal and from nitrate; antibacterial action of the anion. The format is cell-based.
Data set [2] is described as follows: solubility. The format is physicochemical.
Data set [3] in a line: effects to the skin (photosensitization, irritating, caustic).

SMILES strings stand for the structures. Counter-ions that a name gives are not always drawn.

Consider `O=C(O)c1ccccc1S` [mercapto sodium benzoate anion, sodium salt of the 2-mercaptobenzoic acid, reference compound], for which the antibacterical action result in data set [1] is listed as “does not develop an antibacterical action”.
With `O=C(O)c1ccccc1[S][Ag]` [silver-2-mercapto sodium benzoate], in data set [1] (comparison of equivalent ionic doses of Ag^+ from thiometal and from nitrate, variable depending on the tested organism), the “activity in MIC in favour of the thiometal” value is recorded as -1.6 to -50 mcg/ml. The Solubility result in data set [2] (DMSO) is reported as “moderately soluble”; in data set [2] (absolute ethanol), “insoluble”; in data set [2] (acetone), “insoluble”; in data set [2] (ether), “insoluble”; in data set [2] (water (cold)) it was “soluble”. For the same compound, in data set [3], the “caustic effects to the skin” value is given as “does not cause”. The “irritating effects to the skin” value in data set [3] is “does not cause”. Besides, the photosensitization entry in data set [3] was “does not cause”.
